Measured values taken from patent US8765755B2, “N-containing heterocyclic compounds” (YM Biosciences Australia Pty Ltd, priority 2007, dated 2014).

Columns and labels:
human JAK2 = target: T1, human JAK2 (Homo sapiens, UniProt O60674); test: JAK2 kinase enzyme assay (Alphascreen); type: biochemical; conditions: 80 or 625 um ATP
T1 construct: The kinase domain of human JAK2 was amplified; GST (N); made in house; host or cells: Sf9 (Spodoptera frugiperda) insect cells, baculovirus
Procedure: (§1) For screening purposes, compounds (in 100% DMSO) were warmed at 37 degrees for at least 20 minutes before use. A […] stock was initially made in assay buffer, where the final concentration of DMSO was 0.3%. The stocks were then diluted in 384 well Optiplates (Packard) where the final concentration of the compound was 5 μM.
The kinase domain of human JAK2 was amplified from U937mRNA using the polymerase chain reaction with the following primers: […]
The JAK2 PCR products were cloned into the pDest20 destination vector (Gibco). The JAK2 plasmid was then transformed into competent DH10Bac cells (Gibco), and the recombinant baculovirus was prepared via Sf9 insect cell transfection.
(§2) Baculovirus preparations from each of the JAK family members were infected into one litre of Sf9 (Spodoptera frugiperda) cells (Invitrogen) grown in SF900II serum free medium (Invitrogen) to a cell density of approximately 2×10^6 cells/ml. Cells were infected with virus at a cell culture to virus stock ratio of 20:1. Cells were harvested and lysed 48 hours post infection. The GST-tagged JAK kinase domains were purified by affinity chromatography on a GSH agarose column (Scientifix).
(§3) Kinase assays were performed in 384 well Optiplates (Packard) using an Alphascreen Protein Tyrosine KinaseP100 detection kit The compounds were pre-incubated with affinity purified PTK domain in the presence of phosphotyrosine assay buffer (10 mM HEPES, pH 7.5, 100 mM MgCl2, 25 mM NaCl, 200 mM sodium vanadate and 0.1% Tween 20) for 20 minutes. The compounds were then incubated with substrate in the presence of either 80 or 625 um ATP for 60 or 90 minutes. The substrate used was either susbtrate-1 with the sequence biotin-EGPWLEEEEEAYGWMDF-NH2 [SEQ. ID. NO. 13] (final concentration 111 μM) or susbtrate-2 substrate with the sequence biotin-EQEDEPEGDYFEWLEPE (final concentration 133 μM). Alphascreen phosphotyrosine acceptor beads followed by streptavidin donor beads at a concentration of 1/100 in stop buffer were added to each well under subdued light and incubated for 2-3 hours. The Alphascreen plates were read on a Packard Fusion Alpha instrument.

human JAK3 = target: T2, human JAK3 (Homo sapiens, UniProt P52333); test: JAK3 kinase enzyme assay (Alphascreen); type: biochemical; conditions: 80 or 625 um ATP
T2 construct: The kinase domain of human JAK3 was amplified; GST (N); made in house; host or cells: Sf9 (Spodoptera frugiperda) insect cells, baculovirus
Procedure: as §1
The kinase domain of human JAK3 was amplified from U937mRNA using the polymerase chain reaction with the following primers: […]
The JAK3 PCR products were cloned into the pDest20 destination expression vector (Gibco). The JAK3 plasmid was then transformed into competent DH10Bac cells (Gibco), and the recombinant baculovirus was prepared via Sf9 insect cell transfection.
as §2, §3

BafT_J2 = test: Cellular screening, BaF3 TEL:JAK2 cells (Alamar Blue); type: cell-based; conditions: Mus musculus, 40 hr incubation
Procedure: (§4) For screening purposes, compounds were diluted in 96 well plates at a concentration of 20 μM. Plates were warmed at 37° C. for 30 minutes before the assay was performed.
(§5) The coding region encompassing nucleotides 1-487 of TEL was amplified by PCR using the oligonucleotides 5TEL (5′-GGAGGATCCTGATCTCTCTCGCTGTGAGAC-3′) [SEQ ID NO 14] and 3TEL (5′-AGGC GTCGACTTCTTCTTCATGGTTCTG-3′) [SEQ ID NO 15] and U937 mRNA as a template. A BamHI restriction site was incorporated into the 5TEL primer, and a Sal I restriction site was incorporated into the 3TEL primer. The regions encompassing the kinase domain of JAK2 (nucleotides 2994-3914; JAK2F 5′-ACGC GTCGACGGTGCCTTTGAAGACCGGGAT-3′ [SEQ ID NO 16]; JAK2R 5′-ATAGTTTAGCGGCCGCTCAGAATGAAGGTCATTT-3′) [SEQ ID NO 17] and JAK3 (nucleotides 2520-3469; JAK3F 5′-GAAGTCGACTATGCCTGCCAAGACCCCACGATCTT-3′) [SEQ ID NO 18] were generated by PCR using Taq DNA polymerase (Gibco/BRL) and U937 mRNA as a template. A Sal I restriction site was incorporated into the forward primer of JAK2 and JAK3, a Not I site was incorporated into the JAK2 reverse primer and a Xba I site was added to the reverse primer of JAK3.
A TEL/Jak2 fusion was generated by digestion of the TELPCR product with BamH I/Sal I restriction enzymes, digestion of the JAK2 PCR product with Sal I/Not I restriction enzymes, followed by ligation and subcloning of the ligation product into the mammalian expression Vector pTRE 2 (Clontech), which was prepared by digestion with BamH I-Not I restriction enzymes, to give the TEL/Jak2 fusion plasmid pTELJAK2.
(§6) The growth factor dependant myelomonocytic cell line BaF3 bearing the pTET-off plasmid (Clontech) was transfected with either pTELJAK2 or pTELJAK3, and the transfected cells were selected for growth-factor independent cell growth. The BaF3 wild-type cells were cultured in DMEM containing 10% FCS, 10% WEHI 3B conditioned medium. The BaF3 TELJAK cells ([…]) were cultured in DMEM 10% Tet-System Approved FBS (without WEHI 3B conditioned medium).
(§7) Cell suspensions were prepared by harvesting cells from culture. (the cells used in this test were in late log phase growth with high viability.) Cells were diluted in the appropriate growth medium, as described above, to 1.1× final concentration (from 50,000 cell/mL to 200,000 cell/mL, depending on cell line).
(§8) Compounds to be tested were added (10 μL, 10× final concentration) to a flat bottomed 96-well plate. The cellular suspension (90 μL per well) was then added, and the plate incubated for 40 hr at 37° C., 5% CO2. Alamar Blue 10 μL per well was added and the plates returned to the incubator for a further 4-6 hours. The plates were then read at 544 nm.

BAF3wt = test: Cellular screening, BaF3 wild-type cells (Alamar Blue); type: cell-based; conditions: Mus musculus, 40 hr incubation
Procedure: as §4, §6, §7, §8

BafT_J3 = test: Cellular screening, BaF3 TEL:JAK3 cells (Alamar Blue); type: cell-based; conditions: Mus musculus, 40 hr incubation
Procedure: as §4, §5
The TEL/Jak3 fusion was prepared by ligation of the JAK3 Sal I/Not I cleaved kinase domain PCR product with the BamH I/Sal I restriction digested TEL product, followed by ligation of the ligation product into the BamH I/Not I digested pTRE2, to give the TEL/Jak3 fusion plasmid pTELJAK3.
as §6, §7, §8

CTLL2 = test: Cellular screening, CTLL2 cells (Alamar Blue); type: cell-based; conditions: Mus musculus, CTLL-2, 40 hr incubation
Procedure: as §4, §7, §8

T2 sequence (P52333 822-1111 limits assumed): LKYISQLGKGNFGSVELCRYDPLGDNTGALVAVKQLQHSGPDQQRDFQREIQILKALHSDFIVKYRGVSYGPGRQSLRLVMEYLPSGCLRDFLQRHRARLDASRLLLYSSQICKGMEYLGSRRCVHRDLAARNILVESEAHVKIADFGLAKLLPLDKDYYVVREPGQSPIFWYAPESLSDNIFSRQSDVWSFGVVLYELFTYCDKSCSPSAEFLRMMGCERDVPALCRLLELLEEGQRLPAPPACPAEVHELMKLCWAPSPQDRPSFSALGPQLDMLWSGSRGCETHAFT
T1 sequence (O60674 849-1124 limits assumed): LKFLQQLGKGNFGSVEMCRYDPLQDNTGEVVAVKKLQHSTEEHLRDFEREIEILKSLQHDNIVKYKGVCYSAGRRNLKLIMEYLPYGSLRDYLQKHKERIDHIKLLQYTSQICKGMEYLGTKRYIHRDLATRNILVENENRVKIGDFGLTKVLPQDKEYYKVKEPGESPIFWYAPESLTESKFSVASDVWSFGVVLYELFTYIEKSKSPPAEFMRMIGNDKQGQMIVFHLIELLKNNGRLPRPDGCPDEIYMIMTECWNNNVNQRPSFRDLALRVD

| Structure (SMILES) | IC50 (human JAK2) | IC50 (human JAK3) | IC50 (BafT_J2) | IC50 (BAF3wt) | IC50 (BafT_J3) | IC50 (CTLL2) |
| --- | --- | --- | --- | --- | --- | --- |
| COc1ncccc1-c1csc2cnc(Nc3ccc(N4CCOCC4)cc3)nc12 [Compound 45, 7-(2-methoxypyridin-3-yl)-N-(4-morpholinophenyl)thieno[3,2-d]pyrimidin-2-amine] | < 100 nM | < 100 nM | < 1000 nM | < 1000 nM | < 1000 nM | < 1000 nM |
| CCN1CCC(Oc2ccc(Nc3ncc4scc(-c5cccc(S(=O)(=O)NC(C)(C)C)c5)c4n3)cc2)CC1 [Compound 65, N-tert-butyl-3-(2-(4-(1-ethylpiperidin-4-yloxy)phenylamino)thieno[3,2-d]pyrimidin-7-yl)benzenesulfonamide] | < 100 nM | < 100 nM | < 1000 nM | < 5000 nM | < 1000 nM | < 5000 nM |
| Cn1cc(-c2ccc(NS(C)(=O)=O)cc2)c2nc(Nc3ccc(N4CCOCC4)cc3)ncc21 [Compound 35, N-(4-(5-methyl-2-(4-morpholinophenylamino)-5H-pyrrolo[3,2-d]pyrimidin-7-yl)phenyl)methanesulfonamide] | < 100 nM | < 1000 nM | < 5000 nM | < 5000 nM | < 20000 nM | < 5000 nM |
| CCc1ccccc1-c1csc2cnc(Nc3ccc(N4CCOCC4)cc3)nc12 [Compound 29, 7-(2-ethylphenyl)-N-(4-morpholinophenyl)thieno[3,2-d]pyrimidin-2-amine] | < 100 nM | < 100 nM | < 1000 nM | < 1000 nM | < 1000 nM | < 1000 nM |
| C=CC(=O)Nc1cccc(-c2csc3cnc(Nc4ccc(N5CCOCC5)cc4)nc23)c1 [Compound 5, N-(3-(2-(4-morpholinophenylamino)thieno[3,2-d]pyrimidin-7-yl)phenyl)acrylamide] | < 100 nM | < 100 nM | < 5000 nM | < 1000 nM | < 1000 nM | < 1000 nM |
| N#CCNC(=O)c1cccc(-c2csc3cnc(Nc4ccc(CN5CCOCC5)cc4)nc23)c1 [Compound 70, N-(cyanomethyl)-3-(2-(4-(morpholinomethyl)phenylamino)thieno[3,2-d]pyrimidin-7-yl)benzamide] | < 100 nM | < 100 nM | < 1000 nM | < 1000 nM | < 1000 nM | < 5000 nM |
| Fc1ccc(-c2csc3cnc(Nc4ccc(OCCN5CCCC5)cc4)nc23)cc1Cl [Compound 74, 7-(3-chloro-4-fluorophenyl)-N-(4-(2-(pyrrolidin-1-yl)ethoxy)phenyl)thieno[3,2-d]pyrimidin-2-amine] | < 100 nM | < 500 nM | < 1000 nM | < 5000 nM | < 5000 nM | < 5000 nM |
| COc1ccc(Nc2ncc3scc(-c4cccnc4OC)c3n2)cc1OC [Compound 52, N-(3,4-dimethoxyphenyl)-7-(2-methoxypyridin-3-yl)thieno[3,2-d]pyrimidin-2-amine] | < 100 nM | < 100 nM | < 1000 nM | < 1000 nM | < 1000 nM | < 1000 nM |
| OCc1cccc(-c2csc3cnc(Nc4ccc(N5CCOCC5)cc4)nc23)c1 [Compound 89, (3-(2-(4-morpholinophenylamino)thieno[3,2-d]pyrimidin-7-yl)phenyl)methanol] | < 100 nM | < 100 nM | < 1000 nM | < 1000 nM | < 1000 nM | < 1000 nM |
| CC(C)(C)NS(=O)(=O)c1cccc(-c2csc3cnc(Nc4ccc(CN5CCOCC5)cc4)nc23)c1 [Compound 58, N-tert-butyl-3-(2-(4-(morpholinomethyl)phenylamino)thieno[3,2-d]pyrimidin-7-yl)benzenesulfonamide] | < 100 nM | < 500 nM | < 1000 nM | < 1000 nM | < 1000 nM | < 1000 nM |
